Reference: ChEMBL document CHEMBL1255340, “In vitro activities of the Rx-01 oxazolidinones against hospital and community pathogens” (2008)
“And” between values parts separate entries of the source, which are not always exact repeats. Equal entries are not always repeated.

Assays:
Format in all cases: functional
Enterococcus faecium [1] = test: Antimicrobial activity against Enterococcus faecium A9650
Enterococcus faecium [2] = test: Antimicrobial activity against Enterococcus faecium A8948
Enterococcus faecium [3] = test: Antimicrobial activity against Enterococcus faecium A9621 by broth microdilution method
Enterococcus faecium [4] = test: Antimicrobial activity against Enterococcus faecium A8767
Streptococcus pneumoniae [5] = test: Antimicrobial activity against Streptococcus pneumoniae 02J1175
Haemophilus influenzae [6] = test: Antimicrobial activity against Haemophilus influenzae 54A1100
Haemophilus influenzae [7] = test: Antimicrobial activity against Haemophilus influenzae A1950
Staphylococcus aureus [8] = test: Antimicrobial activity against Staphylococcus aureus A7820
Enterococcus faecium [9] = test: Antimicrobial activity against Enterococcus faecium A6349
Enterococcus faecium [10] = test: Antimicrobial activity against vancomycin-susceptible Enterococcus faecium nosocomial isolate by broth microdilution method
Enterococcus faecium [11] = test: Antimicrobial activity against vancomycin-resistant Enterococcus faecium nosocomial isolate
Streptococcus pyogenes [12] = test: Antimicrobial activity against Streptococcus pyogenes
Streptococcus pyogenes [13] = test: Antimicrobial activity against Streptococcus pyogenes harboring mef(A) gene
Legionella pneumophila = test: Antimicrobial activity against Legionella pneumophila isolated from human respiratory tract by broth microdilution method
Chlamydia trachomatis = test: Antimicrobial activity against Chlamydia trachomatis isolated from human respiratory tract by broth microdilution method
Chlamydia pneumoniae = test: Antimicrobial activity against Chlamydophila pneumoniae isolated from human respiratory tract by broth microdilution method
Staphylococcus aureus [14] = test: Antimicrobial activity against Staphylococcus aureus A7819 harboring G2576U mutation in 23S rRNA
Staphylococcus aureus [15] = test: Antimicrobial activity against Staphylococcus aureus A8833 harboring U2500A mutation in 23S rRNA
Staphylococcus aureus [16] = test: Antimicrobial activity against Staphylococcus aureus A8831 harboring U2500A mutation in 23S rRNA
Staphylococcus aureus [17] = test: Antimicrobial activity against Staphylococcus aureus A7817
Staphylococcus aureus [18] = test: Antimicrobial activity against Staphylococcus aureus A8761
Staphylococcus aureus [19] = test: Antimicrobial activity against Staphylococcus aureus A8727
Staphylococcus hominis = test: Antimicrobial activity against Staphylococcus hominis A7828
[20] = tested on: Staphylococcus epidermidis; test: Antimicrobial activity against Staphylococcus epidermidis A8934
Staphylococcus capitis = test: Antimicrobial activity against Staphylococcus capitis A8935
Staphylococcus aureus [21] = test: Antimicrobial activity against Staphylococcus aureus pLXM1 harboring cfr gene
Enterococcus faecalis [22] = test: Antimicrobial activity against Enterococcus faecalis ATCC 29212-P5 harboring G2576U mutation in 23S rRNA
Enterococcus faecalis [23] = test: Antimicrobial activity against Enterococcus faecalis A6343
Enterococcus faecalis [24] = test: Antimicrobial activity against Enterococcus faecalis A5962
Enterococcus faecalis [25] = test: Antimicrobial activity against Enterococcus faecalis A7789
Enterococcus faecium [26] = test: Antimicrobial activity against Enterococcus faecium A5959
Enterococcus faecium [27] = test: Antimicrobial activity against Enterococcus faecium A5960
Enterococcus faecium [28] = test: Antimicrobial activity against Enterococcus faecium A6345
Enterococcus faecium [29] = test: Antimicrobial activity against Enterococcus faecium A6348 harboring G2576U mutation in 23S rRNA
Enterococcus faecium [30] = test: Antimicrobial activity against Enterococcus faecium A6349 harboring G2576U mutation in 23S rRNA
Enterococcus faecium [31] = test: Antimicrobial activity against Enterococcus faecium A8130
Streptococcus pneumoniae [32] = test: Antimicrobial activity against Streptococcus pneumoniae PU1071099 harboring 65WR66 deletion in ribosomal protein L4 by broth microdilution method
Staphylococcus aureus [33] = test: Antimicrobial activity against methicillin resistant Staphylococcus aureus 67-0
Staphylococcus aureus [34] = test: Antimicrobial activity against methicillin-resistant Staphylococcus aureus BK 11118
Staphylococcus aureus [35] = test: Antimicrobial activity against methicillin-resistant Staphylococcus aureus BK 11512
Enterococcus faecalis [36] = test: Antimicrobial activity against vancomycin-resistant Enterococcus faecalis 03B1069
Streptococcus pneumoniae [37] = test: Antimicrobial activity against Streptococcus pneumoniae 02J1258
Streptococcus pneumoniae [38] = test: Antimicrobial activity against Streptococcus pneumoniae nosocomial isolate
Streptococcus pneumoniae [39] = test: Antimicrobial activity against Streptococcus pneumoniae harboring erm(B) gene by broth microdilution method; conditions: Streptococcus pneumoniae; read-out: MIC
Streptococcus pneumoniae [40] = test: Antimicrobial activity against Streptococcus pneumoniae harboring erm(B) and mef(A) gene
Streptococcus pneumoniae [41] = test: Antimicrobial activity against Streptococcus pneumoniae harboring mef(A) gene
Streptococcus pneumoniae [42] = test: Antimicrobial activity against Streptococcus pneumoniae ribosomal mutant
Moraxella catarrhalis = test: Antimicrobial activity against Moraxella catarrhalis
Staphylococcus aureus [43] = test: Antimicrobial activity against Staphylococcus aureus ATCC 29213
Staphylococcus aureus [44] = test: Antimicrobial activity against Staphylococcus aureus pL150
Enterococcus faecalis [45] = test: Antimicrobial activity against Enterococcus faecalis ATCC 29212
Enterococcus faecalis [46] = test: Antimicrobial activity against Enterococcus faecalis A6350
Staphylococcus aureus [47] = test: Antimicrobial activity against methicillin-susceptible Staphylococcus aureus nosocomial isolate
Enterococcus faecalis [48] = test: Antimicrobial activity against vancomycin-resistant Enterococcus faecalis nosocomial isolate
[49] = Enterococcus faecium, read-out: MIC
[50] = Streptococcus pyogenes, read-out: MIC
[51] = Legionella pneumophila, read-out: MIC
[52] = Chlamydia trachomatis, read-out: MIC
[53] = Streptococcus pneumoniae, read-out: MIC

Measured: MIC

CC(=O)NC[C@H]1CN(c2ccc(N3CCOCC3)c(F)c2)C(=O)O1 [LINEZOLID]
32 µg/mL: [20] | Enterococcus faecalis [22] | Enterococcus faecalis [23] | Enterococcus faecalis [24] | Enterococcus faecium [26] | Enterococcus faecium [28] | Enterococcus faecium [31]
64 µg/mL: Enterococcus faecium [3] | Staphylococcus aureus [8] | Staphylococcus aureus [14] | Staphylococcus aureus [15] | Staphylococcus aureus [17] | Staphylococcus hominis | Enterococcus faecalis [25] | Enterococcus faecium [27] | Enterococcus faecium [29]
16 µg/mL: Enterococcus faecium [1] | Haemophilus influenzae [6] | Haemophilus influenzae [7] | Enterococcus faecium [9] | Chlamydia trachomatis | Staphylococcus aureus [18] | Staphylococcus capitis | Enterococcus faecium [30]
8 µg/mL: Enterococcus faecium [2] | Enterococcus faecium [4] | Enterococcus faecium [10] | Legionella pneumophila | Chlamydia trachomatis; [52] | Staphylococcus aureus [19] | Staphylococcus aureus [21]
1 µg/mL: Chlamydia pneumoniae
2 µg/mL and 4 µg/mL: Streptococcus pyogenes [12] | Streptococcus pyogenes [13]
128 µg/mL: Staphylococcus aureus [16]
2 µg/mL: Enterococcus faecium [11]; [49] | Streptococcus pyogenes [12]; [50] | Streptococcus pyogenes [13]; [50]
0.25 µg/mL: Streptococcus pneumoniae [5]
4 µg/mL: Enterococcus faecium [10]; [49] | Enterococcus faecium [11] | Legionella pneumophila; [51]

CC(=O)NC[C@H]1CN(c2ccc(-c3ccc(CNCc4cnn[nH]4)cc3)c(F)c2)C(=O)O1 [RADEZOLID]
0.125 µg/mL: Streptococcus pneumoniae [38]; [53] | Streptococcus pneumoniae [41]; [53]
16 µg/mL: Staphylococcus aureus [8] | Staphylococcus aureus [14] | Staphylococcus aureus [18]
64 µg/mL: Staphylococcus aureus [16]
2 µg/mL: Enterococcus faecium [4] | Staphylococcus aureus [35] | Legionella pneumophila | [20] | Staphylococcus aureus [21] | Enterococcus faecalis [46] | Enterococcus faecium [31]
32 µg/mL: Staphylococcus aureus [15] | Staphylococcus aureus [17]
≤ 0.25 µg/mL: Enterococcus faecium [2] | Enterococcus faecium [10]; [49] | Streptococcus pneumoniae [39] | Streptococcus pneumoniae [40] | Streptococcus pneumoniae [42] | Moraxella catarrhalis; Moraxella catarrhalis, read-out: MIC | Staphylococcus capitis | Enterococcus faecalis [45]
8 µg/mL: Staphylococcus hominis
4 µg/mL: Enterococcus faecium [3] | Staphylococcus aureus [19] | Enterococcus faecalis [23] | Enterococcus faecalis [25] | Enterococcus faecium [26] | Enterococcus faecium [27] | Enterococcus faecium [28] | Enterococcus faecium [29]
1 µg/mL: Staphylococcus aureus [33] | Staphylococcus aureus [34] | Haemophilus influenzae [7] | Legionella pneumophila; [51] | Chlamydia trachomatis | Chlamydia pneumoniae | Staphylococcus aureus [43] | Staphylococcus aureus [44] | Enterococcus faecalis [22] | Enterococcus faecalis [24]
0.25 µg/mL: Streptococcus pneumoniae [37] | Streptococcus pneumoniae [5] | Streptococcus pneumoniae [38] | Streptococcus pneumoniae [41]
0.5 µg/mL: Enterococcus faecium [1] | Streptococcus pneumoniae [32] | Enterococcus faecalis [36] | Haemophilus influenzae [6] | Enterococcus faecium [9] | Enterococcus faecium [10] | Moraxella catarrhalis | Chlamydia trachomatis; [52] | Enterococcus faecium [30]

CC[C@H]1OC(=O)[C@H](C)C(=O)[C@H](C)[C@@H](O[C@@H]2O[C@H](C)C[C@H](N(C)C)[C@H]2O)[C@](C)(OC)C[C@@H](C)C(=O)[C@H](C)[C@H]2N(CCCCn3cnc(-c4cccnc4)c3)C(=O)O[C@]12C [TELITHROMYCIN]
>=0.06 ug ml-1 and 0.125 ug ml-1: Staphylococcus aureus [47]

CN[C@H](CC(C)C)C(=O)N[C@H]1C(=O)N[C@@H](CC(N)=O)C(=O)N[C@H]2C(=O)N[C@H]3C(=O)N[C@H](C(=O)N[C@H](C(=O)O)c4cc(O)cc(O)c4-c4cc3ccc4O)[C@H](O)c3ccc(c(Cl)c3)Oc3cc2cc(c3O[C@@H]2O[C@H](CO)[C@@H](O)[C@H](O)[C@H]2O[C@H]2C[C@](C)(N)[C@H](O)[C@H](C)O2)Oc2ccc(cc2Cl)[C@H]1O [VANCOMYCIN]
32 µg/mL: Enterococcus faecalis [36]
0.125 µg/mL: Streptococcus pneumoniae [37]
>16 µg/mL: Enterococcus faecalis [48]
0.25 µg/mL: Streptococcus pneumoniae [5]
1 µg/mL: Staphylococcus capitis | Enterococcus faecalis [46] | Enterococcus faecalis [25]
≤ 0.25 µg/mL: Streptococcus pneumoniae [32]
> 64 µg/mL: Enterococcus faecium [11]; [49]
8 µg/mL: Enterococcus faecalis [24]
2 µg/mL: Staphylococcus hominis | Enterococcus faecalis [45] | Enterococcus faecalis [22]

GENTAMICIN
> 128 µg/mL: Enterococcus faecalis [48] | Enterococcus faecium [10] | Enterococcus faecium [11]
